Data as given in US5422373A, “Anti-atherosclerotic aryl compounds” (Burroughs Wellcome Co., priority 1990, dated 1995).
pIC50: −log10 of the molar value.

Tests used:
ACAT = target: T1, ACAT (Rattus norvegicus, UniProt Q7TQM4); test: In vitro assay for the inhibition of ACAT activity; assay type: biochemical; conditions: hepatic microsomes of cholesterol/cholic acid fed male CD rats; [14C]oleoyl-CoA 25 μM
T1 construct: using hepatic microsomes as the source of both ACAT and cholesterol; from tissue; host or cells: liver microsomes of male CD rats fed a 0.8% cholesterol/0.2% cholic acid diet
T1 sequence (Q7TQM4 1-524): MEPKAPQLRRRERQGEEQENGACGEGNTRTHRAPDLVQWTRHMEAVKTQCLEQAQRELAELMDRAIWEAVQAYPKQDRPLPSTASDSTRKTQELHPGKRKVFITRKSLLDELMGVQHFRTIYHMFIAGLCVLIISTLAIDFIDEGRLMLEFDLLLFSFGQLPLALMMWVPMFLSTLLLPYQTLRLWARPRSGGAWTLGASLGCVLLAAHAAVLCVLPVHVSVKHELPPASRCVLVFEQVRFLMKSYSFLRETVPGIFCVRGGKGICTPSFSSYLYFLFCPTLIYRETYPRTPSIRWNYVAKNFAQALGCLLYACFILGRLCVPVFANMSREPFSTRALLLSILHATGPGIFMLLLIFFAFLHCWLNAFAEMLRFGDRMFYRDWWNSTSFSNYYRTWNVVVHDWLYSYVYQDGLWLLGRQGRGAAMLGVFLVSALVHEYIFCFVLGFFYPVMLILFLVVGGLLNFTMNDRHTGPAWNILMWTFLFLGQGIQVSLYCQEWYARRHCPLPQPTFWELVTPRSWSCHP
Description: (i) In vitro assay for the inhibition of ACAT activity
ACAT activity was determined as described by Ross et al by the incorporation of [^14 C]oleoyl-CoA into cholesterol [^14 C]oleate using hepatic microsomes as the source of both ACAT and cholesterol. Microsomes were prepared from the livers of male CD rats fed a 0.8% cholesterol/0.2% cholic acid diet 3.5 days before sacrifice. Various concentrations of a test compound were preincubated with a 0.5mg/ml microsomal suspension and after 15 minutes a 50 μg aliquot was removed and incubated with 25 μM of [^14 C]-enriched oleoyl-CoA for 4 minutes. The reaction was terminated by the addition of 1 ml of ethanol and 4ml of hexane. After shaking, the hexane layer was removed and evaporated to dryness. The hexane extract was then reconstituted in 150 μl of HPLC solvent and injected on to a B&J OD5 Reverse Phase C18 column using an isocratic mobile phase of acetonitrile: isopropanol:heptane (50:40:10) in 0.5% acetic acid at a flow rate of 1.0 ml/min. The product of the reaction, [14C]oleoyl cholesterol, was measured using a Flow One radiometric detector.
The ACAT IC50 value for each compound was determined from a plot of % inhibition from control vs inhibitor concentration.

[1] = tested on: cholesterol-cholic acid fed rats; test: Determination of hypolipidaemic activity in cholesterol-cholic acid fed rats; assay type: in vivo, rat; conditions: male Sprague-Dawley rats on 0.4% cholesterol, 0.2% cholic acid diet, serum on fourth day
From the text: (ii) Determination of hypolipidaemic activity in cholesterol-cholic acid fed rats
Male Sprague-Dawley rats (CD, Charles River) each weighing 200-300 g were used. Hypercholesterolemia was induced in the rats by administration of a diet enriched to 0.4% cholesterol, 0.2% cholic acid. Prior to the administration of the diet, blood samples were collected under halothane anesthesia by cardiac puncture to determine baseline lipid levels. The blood was allowed to clot and serum was obtained for the analysis of total cholesterol, dextran-precipitable lipoproteins cholesterol (VLDL +LDL) and total triglycerides. The rats were divided into groups so that each group had similar average baseline serum lipid levels. Five days after the initial blood sampling, administration of each test compound and the cholesterol-cholic acid-enriched diet was begun. Compounds to be tested by gavage were administered b.i.d. in 0.5% methyl cellulose at 9:00 a.m. and 3:00 p.m. for three days and at 9:00 a.m. on the fourth day. Compounds administered as part of the diet were dissolved in ethanol and sprayed on to the diet. The ethanol was allowed to evaporate and the diet given to the rats for three days. On the fourth day, blood samples were collected and the final serum lipid levels determined. All blood samplings were taken after a four-hour fast. […]

CCCCCCCN(Cc1ccc(OCC(OC)OC)cc1)C(=O)Nc1ccc(OC)cc1OC [Synthetic Example 1]
pIC50 (ACAT): 7.57
reduction of LDL-cholesterol ([1]; dose of 25 mg/kg): 78%
reduction of LDL-cholesterol ([1]; dose of 50 mg/kg): 92%
